Read-outs that look alike come from different tables or passages of the source.
Tested on: test plant species
Test: Post-emergent herbicidal activity test (greenhouse, foliar spray, visual growth reduction)
Format: in vivo
Settings: post-emergence, 336 h, 140 g ai/ha
Outline: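 Visual scoring 14 d after treatment (0 = no injury, 100 = complete control) against nontreated and solvent-blank plants gave percent growth reduction. Foliar application used a track sprayer delivering 187 L/ha to seedlings at first or second true leaf stage, grown at 23–29 °C day, ~15 h photoperiod.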

[1] = ECHCG: barnyardgrass (Echinochloa crus-galli), 14 days after application, read-out: Visual Growth Reduction (%) 14 Days After Application, ECHCG
[2] = IPOHE: ivy-leaf morning glory (Ipomoea hederacea), 14 days after application, read-out: Visual Growth Reduction (%) 14 Days After Application, IPOHE
[3] = KCHSC: kochia (Bassia scoparia), 14 days after application, read-out: Visual Growth Reduction (%) 14 Days After Application, KCHSC
[4] = ORYSA: rice (Oryza sativa), 14 days after application, read-out: Visual Growth Reduction (%) 14 Days After Application, ORYSA
[5] = SETFA: giant foxtail (Setaria faberi), 14 days after application, read-out: Visual Growth Reduction (%) 14 Days After Application, SETFA
[6] = SORVU: grain sorghum (Sorghum vulgare), 14 days after application, read-out: Visual Growth Reduction (%) 14 Days After Application, SORVU
[7] = STEME: common chickweed (Stellaria media), 14 days after application, read-out: Visual Growth Reduction (%) 14 Days After Application, STEME
[8] = TRZAS: wheat, spring (Triticum aestivum), 14 days after application, read-out: Visual Growth Reduction (%) 14 Days After Application, TRZAS
[9] = blackgrass (Alopecurus myosuroides), 14 Days After Application, read-out: Visual Growth Reduction (%) ALOMY
[10] = crabgrass (Digitaria sanguinalis), 14 Days After Application, read-out: Visual Growth Reduction (%) DIGSA
[11] = lambsquarters (Chenopodium album), 14 Days After Application, read-out: Visual Growth Reduction (%) CHEAL
[12] = redroot pigweed (Amaranthus retroflexus), 14 Days After Application, read-out: Visual Growth Reduction (%) AMARE
[13] = wild oat (Avena fatua), 14 Days After Application, read-out: Visual Growth Reduction (%) AVEFA
[14] = yellow nutsedge (Cyperus esculentus), 14 Days After Application, read-out: Visual Growth Reduction (%) CYPES
[15] = ALOMY: blackgrass (Alopecurus myosuroides), 14 days after application, read-out: Visual Growth Reduction (%) 14 Days After Application, ALOMY
[16] = AMARE: redroot pigweed (Amaranthus retroflexus), 14 days after application, read-out: Visual Growth Reduction (%) 14 Days After Application, AMARE
[17] = AVEFA: wild oat (Avena fatua), 14 days after application, read-out: Visual Growth Reduction (%) 14 Days After Application, AVEFA
[18] = CHEAL: lambsquarters (Chenopodium album), 14 days after application, read-out: Visual Growth Reduction (%) 14 Days After Application, CHEAL
[19] = CIRAR: canada thistle (Cirsium arvense), 14 days after application, read-out: Visual Growth Reduction (%) 14 Days After Application, CIRAR
[20] = CYPES: yellow nutsedge (Cyperus esculentus), 14 days after application, read-out: Visual Growth Reduction (%) 14 Days After Application, CYPES
[21] = DIGSA: crabgrass (Digitaria sanguinalis), 14 days after application, read-out: Visual Growth Reduction (%) 14 Days After Application, DIGSA

| SMILES | pest or weed control at 140 g/ha [1] [%] | pest or weed control at 140 g/ha [2] [%] | pest or weed control at 140 g/ha [3] [%] | pest or weed control at 140 g/ha [4] [%] | pest or weed control at 140 g/ha [5] [%] | pest or weed control at 140 g/ha [6] [%] | pest or weed control at 140 g/ha [7] [%] | pest or weed control at 140 g/ha [8] [%] | pest or weed control at 140 g/ha [9] [%] | pest or weed control at 140 g/ha [10] [%] | pest or weed control at 140 g/ha [11] [%] | pest or weed control at 140 g/ha [12] [%] | pest or weed control at 140 g/ha [13] [%] | pest or weed control at 140 g/ha [14] [%] | pest or weed control at 140 g/ha [15] [%] | pest or weed control at 140 g/ha [16] [%] | pest or weed control at 140 g/ha [17] [%] | pest or weed control at 140 g/ha [18] [%] | pest or weed control at 140 g/ha [19] [%] | pest or weed control at 140 g/ha [20] [%] | further results |
| --- | --- | --- | --- | --- | --- | --- | --- | --- | --- | --- | --- | --- | --- | --- | --- | --- | --- | --- | --- | --- | --- |
| COC(=O)c1nc(-c2ccc(C(F)(F)F)c(F)c2F)c(F)cc1Cl [F310, Methyl 3-chloro-6-(2,3-difluoro-4-(trifluoromethyl)phenyl)-5-fluoropicolinate] | 60 to 74 | 95 to 100 | 45 to 59 | 0 to 29 | 85 to 94 | 95 to 100 | 0 to 29 | 60 to 74 | 45 to 59 | 95 to 100 | 95 to 100 | 95 to 100 | 60 to 74 | 75 to 84 |  |  |  |  |  |  | pest or weed control at 140 g/ha (canada thistle (Cirsium arvense), 14 Days After Application, read-out: Visual Growth Reduction (%) CIRAR): 95 to 100% |
| CC(F)(F)c1ccc(-c2ccc(Cl)c(C(=O)O)n2)c(Cl)c1 [F111, 3-Chloro-6-(2-chloro-4-(1,1-difluoroethyl)phenyl) picolinic acid] | 95 to 100 | 95 to 100 | 95 to 100 | 0 to 29 | 75 to 84 | 85 to 94 |  | 75 to 84 |  |  |  |  |  |  | 60 to 74 | 95 to 100 | 60 to 74 | 95 to 100 | 95 to 100 | 0 to 29 | pest or weed control at 140 g/ha [21]: 85 to 94% |
| O=C(O)c1nc(-c2c(Cl)cc(C(F)(F)F)cc2Cl)ccc1Cl [F156, 3-Chloro-6-(2,6-dichloro-4-(trifluoromethyl)phenyl)picolinic acid] | 75 to 84 | 95 to 100 | 85 to 94 | 45 to 59 | 95 to 100 | 75 to 84 | 0 to 29 | 60 to 74 |  |  |  |  |  |  | 45 to 59 | 95 to 100 | 0 to 29 | 85 to 94 | 75 to 84 | 0 to 29 | pest or weed control at 140 g/ha [21]: 85 to 94% |
| COc1cc(-c2nc(C(=O)O)c(Cl)cc2F)c(Cl)cc1C(F)(F)F [F337, 3-Chloro-6-(2-chloro-5-methoxy-4-(trifluoromethyl)phenyl)-5-fluoropicolinic acid] | 60 to 74 | 95 to 100 | 85 to 94 | 0 to 29 | 85 to 94 | 75 to 84 | 0 to 29 | 30 to 44 | 0 to 29 | 45 to 59 | 75 to 84 | 30 to 44 | 0 to 29 | 0 to 29 |  |  |  |  |  |  |  |

Source: patent US20230017045A1, “PYRIDINE AND PYRIMIDINE CARBOXYLATE HERBICIDES AND METHODS OF USE THEREOF” (Dow AgroSciences LLC, priority 2017, published 2023)
